Test results taken from patent US20250084040A1, “SUBSTITUTED HETEROCYCLES AS c-MYC TARGETING AGENTS” (Northwestern University, priority 2018, published 2025).

Key:
[1] = In vitro metabolism, mouse liver microsomes; format: in vitro ADME; details: % remaining of compound after 60 min treatment with mouse liver microsomes
Method: In vitro metabolism of NUCC-176242 and NUCC-176248 were tested using mouse liver microsomes and a mouse S9 fraction. (See FIG. 9).

NCI 60 cell panel = test: NCI 60 Cell One-Dose Screen; format: cell-based, human; details: 1.00E−5 Molar
Method: General Description. As of early 2007 all compounds submitted to the NCI 60 Cell screen are tested initially at a single high dose (10^-5 M) in the full NCI 60 cell panel. Only compounds which satisfy pre-determined threshold inhibition criteria in a minimum number of cell lines will progress to the full 5-dose assay. The threshold inhibition criteria for progression to the 5-dose screen was selected to efficiently capture compounds with anti-proliferative activity based on careful analysis of historical DTP screening data. The threshold criteria may be updated as additional data becomes available.
Interpretation of One-Dose Data. The One-dose data will be reported as a mean graph of the percent growth of treated cells and will be similar in appearance to mean graphs from the 5-dose assay. The number reported for the One-dose assay is growth relative to the no-drug control, and relative to the time zero number of cells. This allows detection of both growth inhibition (values between 0 and 100) and lethality (values less than 0). This is the same as for the 5-dose assay, described below. For example, a value of 100 means no growth inhibition. A value of 40 would mean 60% growth inhibition. A value of 0 means no net growth over the course of the experiment. A value of −40 would mean 40% lethality. A value of −100 means all cells are dead. Information from the One-dose mean graph is available for COMPARE analysis.
The human tumor cell lines of the cancer screening panel are grown in RPMI 1640 medium containing 5% fetal bovine serum and 2 mM L-glutamine. For a typical screening experiment, cells are inoculated into 96 well microtiter plates in 100 μL at plating densities ranging from 5,000 to 40,000 cells/well depending on the doubling time of individual cell lines. After cell inoculation, the microtiter plates are incubated at […], 5% CO2, 95% air and 100% relative humidity for 24 h prior to addition of experimental drugs.
After 24 h, two plates of each cell line are fixed in situ with TCA, to represent a measurement of the cell population for each cell line at the time of drug addition (Tz). Experimental drugs are solubilized in dimethyl sulfoxide at 400-fold the desired final maximum test concentration and stored frozen prior to use. At the time of drug addition, an aliquot of frozen concentrate is thawed and diluted to twice the desired final maximum test concentration with complete medium containing 50 µg/ml gentamicin. Additional four, 10-fold or ½ log serial dilutions are made to provide a total of five drug concentrations plus control. Aliquots of 100 μl of these different drug dilutions are added to the appropriate microtiter wells already containing 100 μl of medium, resulting in the required final drug concentrations.
Following drug addition, the plates are incubated for an additional 48 h at 37° C., 5% CO2, 95% air, and 100% relative humidity. For adherent cells, the assay is terminated by the addition of cold TCA. Cells are fixed in situ by the gentle addition of 50 μl of cold 50% (w/v) TCA (final concentration, 10% TCA) and incubated for 60 minutes at 4° C. The supernatant is discarded, and the plates are washed five times with tap water and air dried. Sulforhodamine B (SRB) solution (100 μl) at 0.4% (w/v) in 1% acetic acid is added to each well, and plates are incubated for 10 minutes at room temperature. After staining, unbound dye is removed by washing five times with 1% acetic acid and the plates are air dried. Bound stain is subsequently solubilized with 10 mM trizma base, and the absorbance is read on an automated plate reader at a wavelength of 515 nm. For suspension cells, the methodology is the same except that the assay is terminated by fixing settled cells at the bottom of the wells by gently adding 50 μl of 80% TCA (final concentration, 16% TCA). […]

[2] = system: wild type and MYC knockout rat fibroblasts; test: Growth inhibition of MYC wild type versus MYC knockout rat fibroblasts; format: cell-based
From the text: We tested the top 13 active compounds in the first screen assay. […] More than half of the tested compounds show better growth inhibitory effect on MYC WT compared to MYC KO cells.

CCc1c(OCc2ccc(Cl)cc2)ccc(-c2cc(C(F)(F)F)n[nH]2)c1O [NUCC-0200739]
MLM % at 60 min [1]: 46.4%

Cn1nc(C(F)(F)F)cc1-c1ccc(OCc2ccc(Cl)cc2)c(-c2cc(C(F)(F)F)cc(C(F)(F)F)c2)c1O [NUCC-0196361]
MLM % at 60 min [1]: 72.9%

CCOC(=O)c1cc(-c2ccc(OCc3ccc(Cl)cc3)c(-c3cc(C(F)(F)F)cc(C(F)(F)F)c3)c2O)n[nH]1 [NUCC-0200972]
MLM % at 60 min [1]: 60.3%

Oc1cc(OCc2ccc(Cl)cc2)ccc1-c1n[nH]c(C(F)(F)F)c1Oc1ccccc1Cl [NUCC-0196342]
MLM % at 60 min [1]: 87.4%

Oc1c(-c2cc(C(F)(F)F)[nH]n2)ccc(OCc2ccc(Cl)cc2)c1-c1ccccc1Cl [NUCC-0196363]
MLM % at 60 min [1]: 88.6%

Oc1c(-c2cc(C(F)(F)F)[nH]n2)ccc(Oc2ccc(Cl)cc2)c1-c1cc(C(F)(F)F)cc(C(F)(F)F)c1 [NUCC-0201223]
MLM % at 60 min [1]: 75.8%

CCCCOc1ccc(-c2cc(C(F)(F)F)n(C)n2)c(O)c1-c1cncc(C(F)(F)F)c1 [NUCC-0201209]
MLM % at 60 min [1]: 10.3%

CCCCCCOc1ccc(-c2cc(C(F)(F)F)nn2C)c(O)c1-c1cncc(C#N)c1 [NUCC-0201207]
MLM % at 60 min [1]: 52.7%

CC(C)CCOc1ccc(-c2cc(C(F)(F)F)n[nH]2)c(O)c1-c1cncc(C#N)c1 [NSC: D-804956/1]
Growth Percent (NCI 60 cell panel; 786-0 (Renal Cancer)): 17.07%
Growth Percent (NCI 60 cell panel; A498 (Renal Cancer)): −25.54%
Growth Percent (NCI 60 cell panel; A549/ATCC (Non-Small Cell Lung Cancer)): 10.39%
Growth Percent (NCI 60 cell panel; ACHN (Renal Cancer)): 8.84%
Growth Percent (NCI 60 cell panel; BT-549 (Breast Cancer)): 6.56%
Growth Percent (NCI 60 cell panel; CAKI-1 (Renal Cancer)): 9.47%
Growth Percent (NCI 60 cell panel; CCRF-CEM (Leukemia)): 6.67%
Growth Percent (NCI 60 cell panel; COLO 205 (Colon Cancer)): 49.05%
Growth Percent (NCI 60 cell panel; DU-145 (Prostate Cancer)): 17.95%
Growth Percent, Delta (NCI 60 cell panel; Delta of the mean graph): 40.88%
Growth Percent (NCI 60 cell panel; EKVX (Non-Small Cell Lung Cancer)): 3.52%
Growth Percent (NCI 60 cell panel; HCC-2998 (Colon Cancer)): 16.23%
Growth Percent (NCI 60 cell panel; HCT-15 (Colon Cancer)): 11.96%
Growth Percent (NCI 60 cell panel; HCT-116 (Colon Cancer)): 2.41%
Growth Percent (NCI 60 cell panel; HL-60(TB) (Leukemia)): 3.64%
Growth Percent (NCI 60 cell panel; HOP-62 (Non-Small Cell Lung Cancer)): 5.79%
Growth Percent (NCI 60 cell panel; HOP-92 (Non-Small Cell Lung Cancer)): −27.95%
Growth Percent (NCI 60 cell panel; HS 578T (Breast Cancer)): 17.96%
Growth Percent (NCI 60 cell panel; HT29 (Colon Cancer)): 48.91%
Growth Percent (NCI 60 cell panel; IGROV1 (Ovarian Cancer)): 46.89%
Growth Percent (NCI 60 cell panel; KM12 (Colon Cancer)): 7.94%
Growth Percent (NCI 60 cell panel; LOX IMVI (Melanoma)): 5.15%
Growth Percent (NCI 60 cell panel; M14 (Melanoma)): 22.46%
Growth Percent (NCI 60 cell panel; MALME-3M (Melanoma)): −0.80%
Growth Percent (NCI 60 cell panel; MCF7 (Breast Cancer)): 2.95%
Growth Percent (NCI 60 cell panel; MDA-MB-231/ATCC (Breast Cancer)): 1.43%
Growth Percent (NCI 60 cell panel; MDA-MB-435 (Melanoma)): 7.91%
Growth Percent (NCI 60 cell panel; MDA-MB-468 (Breast Cancer)): −26.3%
Growth Percent (NCI 60 cell panel; MOLT-4 (Leukemia)): 22.96%
Growth Percent, Mean (NCI 60 cell panel; Mean over the cell panel): 9.05%
Growth Percent (NCI 60 cell panel; NCI-H23 (Non-Small Cell Lung Cancer)): −0.16%
Growth Percent (NCI 60 cell panel; NCI-H322M (Non-Small Cell Lung Cancer)): 12.44%
Growth Percent (NCI 60 cell panel; NCI-H460 (Non-Small Cell Lung Cancer)): 3.48%
Growth Percent (NCI 60 cell panel; NCI-H522 (Non-Small Cell Lung Cancer)): −6.89%
Growth Percent (NCI 60 cell panel; NCI/ADR-RES (Ovarian Cancer)): 2.45%
Growth Percent (NCI 60 cell panel; OVCAR-3 (Ovarian Cancer)): 2.95%
Growth Percent (NCI 60 cell panel; OVCAR-4 (Ovarian Cancer)): 20.48%
Growth Percent (NCI 60 cell panel; OVCAR-5 (Ovarian Cancer)): 36.89%
Growth Percent (NCI 60 cell panel; OVCAR-8 (Ovarian Cancer)): 12.48%
Growth Percent (NCI 60 cell panel; PC-3 (Prostate Cancer)): 1.74%
Growth Percent (NCI 60 cell panel; RPMI-8226 (Leukemia)): −31.83%
Growth Percent, Range (NCI 60 cell panel; Range over the cell panel): 80.88%
Growth Percent (NCI 60 cell panel; SF-268 (CNS Cancer)): 21.93%
Growth Percent (NCI 60 cell panel; SF-295 (CNS Cancer)): 0.83%
Growth Percent (NCI 60 cell panel; SF-539 (CNS Cancer)): 25.17%
Growth Percent (NCI 60 cell panel; SK-MEL-2 (Melanoma)): −13.82%
Growth Percent (NCI 60 cell panel; SK-MEL-28 (Melanoma)): 33.67%
Growth Percent (NCI 60 cell panel; SK-OV-3 (Ovarian Cancer)): −7.94%
Growth Percent (NCI 60 cell panel; SN12C (Renal Cancer)): 3.81%
Growth Percent (NCI 60 cell panel; SNB-19 (CNS Cancer)): 13.09%
Growth Percent (NCI 60 cell panel; SNB-75 (CNS Cancer)): 30.14%
Growth Percent (NCI 60 cell panel; SR (Leukemia)): 33.69%
Growth Percent (NCI 60 cell panel; SW-620 (Colon Cancer)): 14.25%
Growth Percent (NCI 60 cell panel; T-47D (Breast Cancer)): 2.83%
Growth Percent (NCI 60 cell panel; TK-10 (Renal Cancer)): 11.38%
Growth Percent (NCI 60 cell panel; U251 (CNS Cancer)): 2.85%
Growth Percent (NCI 60 cell panel; UACC-62 (Melanoma)): 17.46%
Growth Percent (NCI 60 cell panel; UACC-257 (Melanoma)): −14.05%
Growth Percent (NCI 60 cell panel; UO-31 (Renal Cancer)): 3.89%

Cn1nc(C(F)(F)F)cc1-c1ccc(OCc2ccc(Cl)cc2)c(-c2cccc(C#N)c2)c1O [NUCC-0198399]
MLM % at 60 min [1]: 80.3%

Oc1c(-c2cc(C(F)(F)F)n[nH]2)ccc(OCCN2CCCC2)c1-c1cc(C(F)(F)F)cc(C(F)(F)F)c1 [NUCC-0201032]
MLM % at 60 min [1]: 30.5%

CCc1ccc(Oc2c(-c3ccc(OCc4ccncc4)cc3O)n[nH]c2C(F)(F)F)cc1 [NUCC-0176250]
selectivity of growth inhibition, MYC WT compared to MYC KO cells [2]: great selectivity

CCCCCCOc1ccc(-c2cc(C(F)(F)F)n[nH]2)c(O)c1-c1cc(C(F)(F)F)cc(C(F)(F)F)c1 [NUCC-0201196]
MLM % at 60 min [1]: 66.6%

Cn1nc(C(F)(F)F)cc1-c1ccc(OCc2ccc(Cl)cc2)cc1C=O [NUCC-0200976]
MLM % at 60 min [1]: 21.8%

COc1cccc(-c2c(-c3ccc(OCc4ccc(Cl)cc4)cc3O)n[nH]c2C(F)(F)F)c1 [NUCC-0198309]
MLM % at 60 min [1]: 74%
